Columns and labels:
[1] = test system: Angiotensin II-induced pressor response; experiment: In vivo Angiotensin II antagonism in conscious normotensive rats; conditions: Rattus norvegicus, po; P.O.; conscious normotensive male SD rats; Angiotensin II 0.1 μg/kg; read-out: ID50 (dose of test compound necessary to produce 50% inhibition of Angiotensin II-induced pressor response)
Procedure: The antagonistic activity of the compound (I) against the angiotensin II, which is prepared by the process according to a preferred embodiment of the invention, was evaluated with relation to rats.
In vivo Angiotensin II antagonism in conscious normotensive rats.
Male SD rats (Charles River Japan, 9 weeks, 300-350 g) were anesthetized with pentobarbital at 50 mg/kg i.p. Both the left femoral artery and the right femoral vein were cannulated. A heparin-filled catheter (50U/ml) was tunneled subcutaneously (s.c.) to the dorsal side of the neck and exteriorized.
Rats were permitted to recover overnight from anesthesia and allowed free access to water, but food was withheld.
The next day, the femoral artery catheter was connected to a pressure transducer (COBE 041-500-508, USA) coupled to a polygraph (GRASS Model 7, USA) to monitor arterial blood pressure. After an appropriate equilibration period, Angiotensin II (0.1 μg/kg) was injected in the femoral vein three times during the control period.
Test compounds were then administered orally (p.o.) at a constant volume of 2 ml/kg.
Angiotensin II challenges were repeated at set times thereafter.
ID50 values, the dose of test compound necessary to produce 50% inhibition of Angiotensin II-induced pressor response, were calculated from peak inhibition percentage with several doses of test compound.

[2] = Acute Toxicity Test (oral, mice); format: in vivo; conditions: for LD50: mouse, in vivo, po
Procedure: Respective 5 mice of ICR system, which was distributed from Korean Laboratory Animal Center, were bred in a polycarbonate breeding box at a breeding environment of 23±1° C. of temperature, 55±5% of humidity, 10-15 times/hr of evacuation, 12 hr cycle of fluorescent light luminance, and 150-300 Lux of illumination.
After observing the mice for one week of acclimation breeding period, only normal mice were selected for laboratory work. The mice were fed with sterilized feed for laboratory animals, which was made by Cheil Jedang Co.,Ltd, and supplied with purified water to drink.
During the acclimation period, mice, who were evaluated to be healthy, were weighed and divided into groups randomly. Individual identification of laboratory animals was performed by indumentum pigment display and tag display per breeding box.
Establishment of dose was carried out according to a result of preliminary test in such a manner that a maximum dose group for both male and female was set to 5000 mg/kg and azeotropy was set to 1.71. Medium-high, medium and medium-low dose groups were respectively set as follows and a control group was administrated with physiological saline for injection.
Before administration of testing substances, body weight of the laboratory animals was in the range of 24-28 g in case of male and in the range of 19-28 g in case of female, respectively. The laboratory animals were aged 6 weeks.
Preparation of the testing substances was dissolved in physiological saline before administration. Dose was calculated according to the body weight which was measured before administration and dispensed by oral administration to a mouse who was in abrosia for 18 hours before testing.
Observation of clinical symptom such as general change, toxic symptom and mortality was performed for all laboratory animals once an hour during 6 hours after administration on the very administration day, and once a day from the next day to 14th day of administration.
Administration group, who was administered with testing substances, and the control group were weighed on the administration day, first, third, seventh, tenth and fourteenth days from the administration at a predetermined time for all animals who were alive.
After finish of the test, all animals were slightly anesthetized with ether and bleeding-killed. Appearance and internal organs of the animals were examined with naked eye carefully. Animals, who died during the text, were examined in the same manner.

CCCCc1nc(C)c(CC(N)=S)c(=O)n1Cc1ccc(-c2ccccc2-c2nnn[nH]2)cc1 [Compound 1, 2-n-butyl-5-aminothiocarbonylmethyl-6-methyl-3-[[2'-(1H-tetrazol-5-yl)biphenyl-4-yl]methyl]-pyrimidine-4(3H)-one]
ED50 [1]: > 3 mg/kg

CCCCc1nc(C)c(CC(=S)N(C)C)c(=O)n1Cc1ccc(-c2ccccc2-c2nnn[nH]2)cc1 [Compound 2, 2-n-butyl-5-dimethylaminothiocarbonylmethyl-6-methyl-3-[[2'-(1H-tetrazol-5-yl)biphenyl-4-yl]methyl]-pyrimidine-4(3H)-one]
ED50 [1]: 1.1 mg/kg
Mortality (death number/survival number) ([2]; female, 1000 mg/kg oral, day 0): 0/5
Mortality (death number/survival number) ([2]; female, 1000 mg/kg oral, day 1): 0/5
Mortality (death number/survival number) ([2]; female, 1000 mg/kg oral, day 2): 0/5
Mortality (death number/survival number) ([2]; female, 1000 mg/kg oral, day 3): 0/5
Mortality (death number/survival number) ([2]; female, 1000 mg/kg oral, day 7): 0/5
Mortality (death number/survival number) ([2]; female, 1000 mg/kg oral, day 14): 0/5
Mortality (death number/survival number) ([2]; female, 1710 mg/kg oral, day 0): 0/5
Mortality (death number/survival number) ([2]; female, 1710 mg/kg oral, day 1): 0/5
Mortality (death number/survival number) ([2]; female, 1710 mg/kg oral, day 2): 0/5
Mortality (death number/survival number) ([2]; female, 1710 mg/kg oral, day 3): 0/5
Mortality (death number/survival number) ([2]; female, 1710 mg/kg oral, day 7): 0/5
Mortality (death number/survival number) ([2]; female, 1710 mg/kg oral, day 14): 0/5
Mortality (death number/survival number) ([2]; female, 2924 mg/kg oral, day 0): 0/5
Mortality (death number/survival number) ([2]; female, 2924 mg/kg oral, day 1): 0/5
Mortality (death number/survival number) ([2]; female, 2924 mg/kg oral, day 2): 0/5
Mortality (death number/survival number) ([2]; female, 2924 mg/kg oral, day 3): 0/5
Mortality (death number/survival number) ([2]; female, 2924 mg/kg oral, day 7): 0/5
Mortality (death number/survival number) ([2]; female, 2924 mg/kg oral, day 14): 0/5
Final mortality (death number/total number) ([2]; female, 5000 mg/kg oral): 0/5
Mortality (death number/survival number) ([2]; female, 5000 mg/kg oral, day 0): 0/5
Mortality (death number/survival number) ([2]; female, 5000 mg/kg oral, day 1): 0/5
Mortality (death number/survival number) ([2]; female, 5000 mg/kg oral, day 2): 0/5
Mortality (death number/survival number) ([2]; female, 5000 mg/kg oral, day 3): 0/5
Mortality (death number/survival number) ([2]; female, 5000 mg/kg oral, day 7): 0/5
Mortality (death number/survival number) ([2]; female, 5000 mg/kg oral, day 14): 0/5
Mortality (death number/survival number) ([2]; male, 1000 mg/kg oral, day 0): 0/5
Mortality (death number/survival number) ([2]; male, 1000 mg/kg oral, day 1): 0/5
Mortality (death number/survival number) ([2]; male, 1000 mg/kg oral, day 2): 0/5
Mortality (death number/survival number) ([2]; male, 1000 mg/kg oral, day 3): 0/5
Mortality (death number/survival number) ([2]; male, 1000 mg/kg oral, day 7): 0/5
Mortality (death number/survival number) ([2]; male, 1000 mg/kg oral, day 14): 0/5
Mortality (death number/survival number) ([2]; male, 1710 mg/kg oral, day 0): 0/5
Mortality (death number/survival number) ([2]; male, 1710 mg/kg oral, day 1): 0/5
Mortality (death number/survival number) ([2]; male, 1710 mg/kg oral, day 2): 0/5
Mortality (death number/survival number) ([2]; male, 1710 mg/kg oral, day 3): 0/5
Mortality (death number/survival number) ([2]; male, 1710 mg/kg oral, day 7): 0/5
Mortality (death number/survival number) ([2]; male, 1710 mg/kg oral, day 14): 0/5
Mortality (death number/survival number) ([2]; male, 2924 mg/kg oral, day 0): 0/5
Mortality (death number/survival number) ([2]; male, 2924 mg/kg oral, day 1): 0/5
Mortality (death number/survival number) ([2]; male, 2924 mg/kg oral, day 2): 0/5
Mortality (death number/survival number) ([2]; male, 2924 mg/kg oral, day 3): 0/5
Mortality (death number/survival number) ([2]; male, 2924 mg/kg oral, day 7): 0/5
Mortality (death number/survival number) ([2]; male, 2924 mg/kg oral, day 14): 0/5
Final mortality (death number/total number) ([2]; male, 5000 mg/kg oral): 0/5
Mortality (death number/survival number) ([2]; male, 5000 mg/kg oral, day 0): 0/5
Mortality (death number/survival number) ([2]; male, 5000 mg/kg oral, day 1): 0/5
Mortality (death number/survival number) ([2]; male, 5000 mg/kg oral, day 2): 0/5
Mortality (death number/survival number) ([2]; male, 5000 mg/kg oral, day 3): 0/5
Mortality (death number/survival number) ([2]; male, 5000 mg/kg oral, day 7): 0/5
Mortality (death number/survival number) ([2]; male, 5000 mg/kg oral, day 14): 0/5
LD50 ([2]; female mice): > 5000 mg/kg
LD50 ([2]; male mice): > 5000 mg/kg

CCCCc1nc(C)c(CC(=S)N(CC)CC)c(=O)n1Cc1ccc(-c2ccccc2-c2nnn[nH]2)cc1 [Compound 3, 2-n-butyl-5-diethylaminothiocarbonylmethyl-6-methyl-3-[[2'-(1H-tetrazol-5-yl)biphenyl-4-yl]methyl]-pyrimidine-4(3H)-one]
ED50 [1]: < 3 mg/kg

CCCCc1nc(C)c(CC(=S)N2CCCCCCC2)c(=O)n1Cc1ccc(-c2ccccc2-c2nn[nH]n2)cc1 [Compound 4, 2-n-butyl-5-heptamethyleniminothiocarbonyl-methyl-6-methyl-3-[[2'-(1H-tetrazol-5-yl)biphenyl-4-yl]methyl]-pyrimidine-4(3H)-one]
ED50 [1]: 3.1 mg/kg

CCCCc1nc(C)c(CC(=S)N2CCSCC2)c(=O)n1Cc1ccc(-c2ccccc2-c2nn[nH]n2)cc1 [Compound 5, 2-n-butyl-5-thiomorpholynothiocarbonylmethyl-6-methyl-3-[[2'-(1H-tetrazol-5-yl)-biphenyl-4-yl]methyl]-pyrimidine-4(3H)-one]
ED50 [1]: < 3 mg/kg

CCCCc1nc(C)c(CC(=S)N2CCOCC2)c(=O)n1Cc1ccc(-c2ccccc2-c2nn[nH]n2)cc1 [Compound 6]
ED50 [1]: < 3 mg/kg

CCCCc1nc(C)c(CC(=S)N2CCCCC2)c(=O)n1Cc1ccc(-c2ccccc2-c2nnn[nH]2)cc1 [Compound 7, 2-n-butyl-5-piperidinothiocarbonylmethyl-6-methyl-3-[[2 '-(1H-tetrazol-5-yl)-biphenyl-4-yl]methyl]-pyrimidine-4(3H)-one]
ED50 [1]: < 3 mg/kg

CCCCc1nc(C)c(CC(=S)N2CCC2)c(=O)n1Cc1ccc(-c2ccccc2-c2nn[nH]n2)cc1 [Compound 9, 2-n-butyl-5-azetidinothiocarbonylmethyl-6-methyl-3-[[2'-(1H-tetrazol-5-yl)-biphenyl-4-yl]methyl]-pyrimidine-4 (3H)-one]
ED50 [1]: 1.19 mg/kg

— patent US6294542A, “Pyrimidinone compounds, pharmaceutical compositions containing the compounds and the process for preparing the same” (Boryung Pharmaceutical Co. Ltd., priority 1998, dated 2001)
